# Reference: US20030232851A1, “Viral treatment” (The Procter & Gamble Company, priority 1999, published 2003)
# Several values for one entry are separate records, joined by “and”; a condition that tells them apart may be missing. Equal entries are not always repeated.
# Assays:
# Type in all cases: cell-based
# HEPG22.2.15 = test: Hepatitis B test: toxicity values
# [1] = tested on: HIV-1 cell line, U937IIIB; test: Long term in vitro study, U937IIIB, reverse transcriptase; design: reverse transcriptase data: unit not given here
# Procedure: (§1) A microtiter-based reveres transcriptase (RT) reaction is utilized (Buckheit et al (1991) AIDS Research and Human Retroviruses 7:295-302). Tritiated thymidine triphosphate (NEN)(TTP) is resuspended in distilled water at 5 Ci/ml. Poly rA and oligo dT are prepared as a stock solution which is kept at −20° C. The RT reaction buffer is prepared fresh on a daily basis and consists of 125 μl 1M EGTA, 125 μl water, 125 μl Triton X-100, 50 μl Tris (pH 7.4), 50 μl 1 MDDT, and 40 μl 1M MgCl2. These three solutions are mixed together in a ratio of 1 part TTP, 2.5 parts poly rA:oligo dT, 2.5 parts reaction buffer and 4 parts distilled water. Ten microliters of this reaction mixture is placed in a round bottom microtiter place and 15 μl of virus containing supernatant is added and mixed. The plate is incubated at 37° C. for 60 minutes. Following reaction, the reaction volume is spotted onto filter mats, washed 6 times for 5 minutes each in a 5% sodium phosphate buffer, 2 times for 1 minute each in distilled water, 2 times for 1 minute each in 70% ethanol, and then dried. The dried filter mat is placed in a plastic sample bag, Betaplate scintillation fluid is added and the bag is heat sealed. Incorporated radioactivity is quantified utilizing a Wallac Microbeta scintillation counter.
# Acute infection of most established human cell lines with HIV-1 results in the eventual establishment of a constitutive virus-producing chronically infected cell line. The cells can be passaged for long periods of time in culture without loss of virus production. These cells may be utilized to evaluate the effects of anti-HIV compounds on syncytium formation or to evaluate the effects of anti-HIV compounds on levels of virus production from these cells. […] Each of the cells contains an integrated HIV genome or provirus. Chronically infected CEM, H9 and U937 cell lines have been prepared and cultured by Southern Research Institute, Frederick Md. and are available from them.
# CEM-SS cells chronically infected with HIV isolate, for example SKI (CEM-SKI) are cultured in RPMI1640 tissue culture medium supplemented with 10% fetal bovine serum and antibiotics. […] CEM-SKI or other infected cells with no added drug are used as the control cells. Cells are allowed to grow to a density of approximately 1×10^6 cells/ml and are then passaged at a 1:10 dilution. […] The drug concentration in the flask is then increased two-fold and the cells maintained as above.
# The cell populations contain integrated copies of the HIV genome and constitutively produce HIV at relatively high levels or are latently infected and only produce virus after stimulation with phorbol esters, tumor necrosis factor or IL6 (U1 and ACH2). Reductions in virus products were observed when quantifying supernatant reverse transcriptase activity,
# A long term in vitro study of 2-(2-thienyl)-imidazolo [4,5-b]pyridine against an HIV-1 cell line, U9371IIIB was conducted at three different levels. The results with U937IIIB cells were reported at weekly intervals.
# HIV-2 virus, CEMROD = test: In vitro screening against HIV-2 virus, CEMROD: reverse transcriptase activity; design: Reverse Transcriptase Activity, samples 1-3 / Reverse Transcriptase Activity, average: unit not given here
# Procedure: as §1
# [2] = Table 2 duplicate study, 0.32 μg/ml
# [3] = Table 2 duplicate study, 1 μg/ml
# [4] = Table 2 duplicate study, 1.0 μg/ml
# [5] = Table 2 duplicate study, 3.2 μg/ml
# [6] = Table 2 duplicate study, 32 μg/ml
# [7] = Table 2 duplicate study, 100 μg/ml
smiles,measurement,setting,value
"c1csc(-c2nc3cccnc3[nH]2)c1 [2-(2-thienyl)-imidazolo [4,5-b]pyridine]","Toxicity Values, % cell control",HEPG22.2.15; 0.64 μg/ml,108.5%
same,"Toxicity Values, mean",HEPG22.2.15; 0.64 μg/ml,1.359
same,"Toxicity Values, samples 1-3",HEPG22.2.15; 0.64 μg/ml,1.389 and 1.334 and 1.355
same,"Toxicity Values, % cell control",HEPG22.2.15; 2 μg/ml,101.1%
same,"Toxicity Values, mean",HEPG22.2.15; 2 μg/ml,1.266
same,"Toxicity Values, samples 1-3",HEPG22.2.15; 2 μg/ml,1.121 and 1.246 and 1.432
same,"Toxicity Values, % cell control",HEPG22.2.15; 6.4 μg/ml,101.5%
same,"Toxicity Values, mean",HEPG22.2.15; 6.4 μg/ml,1.271
same,"Toxicity Values, samples 1-3",HEPG22.2.15; 6.4 μg/ml,1.249 and 1.157 and 1.407
same,"Toxicity Values, % cell control",HEPG22.2.15; 20 μg/ml,30.7%
same,"Toxicity Values, mean",HEPG22.2.15; 20 μg/ml,0.385
same,"Toxicity Values, samples 1-3",HEPG22.2.15; 20 μg/ml,0.404 and 0.389 and 0.361
same,"Toxicity Values, % cell control",HEPG22.2.15; 64 μg/ml,1.4%
same,"Toxicity Values, mean",HEPG22.2.15; 64 μg/ml,0.017
same,"Toxicity Values, samples 1-3",HEPG22.2.15; 64 μg/ml,0.017 and 0.018
same,"Toxicity Values, % cell control",HEPG22.2.15; 200 μg/ml,1.4%
same,"Toxicity Values, mean",HEPG22.2.15; 200 μg/ml,0.017
same,"Toxicity Values, samples 1-3",HEPG22.2.15; 200 μg/ml,0.018 and 0.017
same,TC50,HEPG22.2.15; first experiment,16.3 µg/mL
same,TC50,HEPG22.2.15; replicate experiment,16.8 µg/mL
same,reverse transcriptase data,"[1]; 7 μg/ml, day 4",2100
same,reverse transcriptase data,"[1]; 7 μg/ml, day 11",2205
same,reverse transcriptase data,"[1]; 7 μg/ml, day 18",2245
same,reverse transcriptase data,"[1]; 7 μg/ml, day 25",2212
same,reverse transcriptase data,"[1]; 7 μg/ml, day 32",2347
same,reverse transcriptase data,"[1]; 7 μg/ml, day 39",2516
same,reverse transcriptase data,"[1]; 7 μg/ml, day 46",1968
same,reverse transcriptase data,"[1]; 7 μg/ml, day 53",1695
same,reverse transcriptase data,"[1]; 7 μg/ml, day 60",2887
same,reverse transcriptase data,"[1]; 7 μg/ml, day 67",4170
same,reverse transcriptase data,"[1]; 7 μg/ml, day 71",7786
same,reverse transcriptase data,"[1]; 7 μg/ml, day 74",6119
same,reverse transcriptase data,"[1]; 7 μg/ml, day 88",6880
same,reverse transcriptase data,"[1]; 7 μg/ml, day 95",5041
same,reverse transcriptase data,"[1]; 7 μg/ml, day 102",5072
same,reverse transcriptase data,"[1]; 7 μg/ml, day 109",7437
same,reverse transcriptase data,"[1]; 15 μg/ml, day 4",1188
same,reverse transcriptase data,"[1]; 15 μg/ml, day 11",713
same,reverse transcriptase data,"[1]; 15 μg/ml, day 18",993
same,reverse transcriptase data,"[1]; 15 μg/ml, day 25",1900
same,reverse transcriptase data,"[1]; 15 μg/ml, day 32",2003
same,reverse transcriptase data,"[1]; 15 μg/ml, day 39",1326
same,reverse transcriptase data,"[1]; 15 μg/ml, day 46",987
same,reverse transcriptase data,"[1]; 15 μg/ml, day 53",1221
same,reverse transcriptase data,"[1]; 15 μg/ml, day 60",1205
same,reverse transcriptase data,"[1]; 15 μg/ml, day 67",2314
same,reverse transcriptase data,"[1]; 15 μg/ml, day 71",4265
same,reverse transcriptase data,"[1]; 15 μg/ml, day 74",5689
same,reverse transcriptase data,"[1]; 15 μg/ml, day 88",6832
same,reverse transcriptase data,"[1]; 15 μg/ml, day 95",4988
same,reverse transcriptase data,"[1]; 15 μg/ml, day 102",3912
same,reverse transcriptase data,"[1]; 15 μg/ml, day 109",4294
same,reverse transcriptase data,"[1]; 30 μg/ml, day 4",996
same,reverse transcriptase data,"[1]; 30 μg/ml, day 11",180
same,reverse transcriptase data,"[1]; 30 μg/ml, day 18",417
same,reverse transcriptase data,"[1]; 30 μg/ml, day 25",588
same,reverse transcriptase data,"[1]; 30 μg/ml, day 32",716
same,reverse transcriptase data,"[1]; 30 μg/ml, day 39",625
same,reverse transcriptase data,"[1]; 30 μg/ml, day 46",542
same,reverse transcriptase data,"[1]; 30 μg/ml, day 53",208
same,reverse transcriptase data,"[1]; 30 μg/ml, day 60",504
same,reverse transcriptase data,"[1]; 30 μg/ml, day 67",782
same,reverse transcriptase data,"[1]; 30 μg/ml, day 71",1414
same,reverse transcriptase data,"[1]; 30 μg/ml, day 74",1059
same,reverse transcriptase data,"[1]; 30 μg/ml, day 88",1811
same,reverse transcriptase data,"[1]; 30 μg/ml, day 95",1988
same,reverse transcriptase data,"[1]; 30 μg/ml, day 102",1695
same,reverse transcriptase data,"[1]; 30 μg/ml, day 109",1542
same,reverse transcriptase data on continuation (in words),[1]; run through 242 days,data remained consistent
same,"Reverse Transcriptase Activity, % virus control","HIV-2 virus, CEMROD; Table 1, 0.32 μg/ml",119%
same,"Reverse Transcriptase Activity, average","HIV-2 virus, CEMROD; Table 1, 0.32 μg/ml",5947
same,"Reverse Transcriptase Activity, samples 1-3","HIV-2 virus, CEMROD; Table 1, 0.32 μg/ml",5878 and 5529 and 6435
same,"Reverse Transcriptase Activity, % virus control","HIV-2 virus, CEMROD; Table 1, 1 μg/ml",103.8%
same,"Reverse Transcriptase Activity, average","HIV-2 virus, CEMROD; Table 1, 1 μg/ml",5188
same,"Reverse Transcriptase Activity, samples 1-3","HIV-2 virus, CEMROD; Table 1, 1 μg/ml",5002 and 5086 and 5476
same,"Reverse Transcriptase Activity, % virus control","HIV-2 virus, CEMROD; Table 1, 1.0 μg/ml",48.1%
same,"Reverse Transcriptase Activity, average","HIV-2 virus, CEMROD; Table 1, 1.0 μg/ml",2403
same,"Reverse Transcriptase Activity, samples 1-3","HIV-2 virus, CEMROD; Table 1, 1.0 μg/ml",2812 and 2206 and 2190
same,"Reverse Transcriptase Activity, % virus control","HIV-2 virus, CEMROD; Table 1, 3.2 μg/ml",84.0%
same,"Reverse Transcriptase Activity, average","HIV-2 virus, CEMROD; Table 1, 3.2 μg/ml",4201
same,"Reverse Transcriptase Activity, samples 1-3","HIV-2 virus, CEMROD; Table 1, 3.2 μg/ml",4005 and 4017 and 4580
same,"Reverse Transcriptase Activity, % virus control","HIV-2 virus, CEMROD; Table 1, 32 μg/ml",8.1%
same,"Reverse Transcriptase Activity, average","HIV-2 virus, CEMROD; Table 1, 32 μg/ml",407
same,"Reverse Transcriptase Activity, samples 1-3","HIV-2 virus, CEMROD; Table 1, 32 μg/ml",382 and 390 and 450
same,"Reverse Transcriptase Activity, % virus control","HIV-2 virus, CEMROD; Table 1, 100 μg/ml",1.4%
same,"Reverse Transcriptase Activity, average","HIV-2 virus, CEMROD; Table 1, 100 μg/ml",72
same,"Reverse Transcriptase Activity, samples 1-3","HIV-2 virus, CEMROD; Table 1, 100 μg/ml",80 and 68
same,"Reverse Transcriptase Activity, % virus control","HIV-2 virus, CEMROD; [2]",116.6%
same,"Reverse Transcriptase Activity, average","HIV-2 virus, CEMROD; [2]",5616
same,"Reverse Transcriptase Activity, samples 1-3","HIV-2 virus, CEMROD; [2]",4758 and 5725 and 6365
same,"Reverse Transcriptase Activity, % virus control","HIV-2 virus, CEMROD; [3]",121.1%
same,"Reverse Transcriptase Activity, average","HIV-2 virus, CEMROD; [3]",5833
same,"Reverse Transcriptase Activity, samples 1-3","HIV-2 virus, CEMROD; [3]",4251 and 6264 and 6984
same,"Reverse Transcriptase Activity, % virus control","HIV-2 virus, CEMROD; [4]",51.1%
same,"Reverse Transcriptase Activity, average","HIV-2 virus, CEMROD; [4]",2463
same,"Reverse Transcriptase Activity, samples 1-3","HIV-2 virus, CEMROD; [4]",2776 and 2531 and 2081
same,"Reverse Transcriptase Activity, % virus control","HIV-2 virus, CEMROD; [5]",100.0%
same,"Reverse Transcriptase Activity, average","HIV-2 virus, CEMROD; [5]",4819
same,"Reverse Transcriptase Activity, samples 1-3","HIV-2 virus, CEMROD; [5]",5050 and 5352 and 4054
same,"Reverse Transcriptase Activity, % virus control","HIV-2 virus, CEMROD; [6]",4.1%
same,"Reverse Transcriptase Activity, average","HIV-2 virus, CEMROD; [6]",197
same,"Reverse Transcriptase Activity, samples 1-3","HIV-2 virus, CEMROD; [6]",173 and 177 and 241
same,"Reverse Transcriptase Activity, % virus control","HIV-2 virus, CEMROD; [7]",0.9%
same,"Reverse Transcriptase Activity, average","HIV-2 virus, CEMROD; [7]",44
same,efficacy in treating HIV (in words),"HIV-2 virus, CEMROD; at the higher concentrations",shows efficacy
